The values that follow come from US10550117B2, “2-azabicyclo[3.1.0]hexan-3-one derivatives and methods of use” (Genentech, Inc., priority 2016, dated 2020).

A value given as a limit tells only on which side of the number the result lay.

The target of data set [1] is nuclear factor-kappa B (NF-kB)-inducing kinase (NIK) (Homo sapiens (Human), UniProt Q99558). In words: NIK enzyme inhibition assay (Transcreener ADP fluorescence polarization). It counts as biochemical. To be noted: for Ki: purified NIK 0.5 nM, 10 μM ATP, Morrison equation, read-out: NIK ADP-FP Ki; for NIK enzyme inhibition, potency in words relative to the other stereoisomers: stereoisomers separated by chiral SFC, qualitative. The method, then:
The ability of the nuclear factor-kappa B (NF-kB)-inducing kinase (NIK) to catalyze the hydrolysis of adenosine-5′-triphosphate (ATP) was monitored using the Transcreener ADP (adenosine-5′-diphosphate) assay (BellBrook Labs). […] Reactions were quenched by the addition of 20 mM 2,2′,2″,2′″-(ethane-1,2-diyldinitrilo)tetraacetic acid and 0.01% Brij 35. The tracer bound to the antibody was displaced by the ADP generated during the NIK reaction, which causes a decrease in fluorescence polarization that was measured by laser excitation at 633 nm with a Fluorescence Correlation Spectroscopy Plus reader (Evotec AG). Equilibrium dissociation constant (Ki) values for NIK inhibitors are calculated from plots of activity vs. inhibitor concentration using Morrison's quadratic equation that accounts for the potential of tight binding, and by also applying the conversion factor that accounted for competitive inhibition and the concentration of substrate used in the assay relative to its Michaelis constant (Km).
For orientation: In fluorescence polarisation assays a small probe gives low polarisation when free and higher when bound to something large.

For data set [2], the system named is REL-A (p65) nuclear translocation in HUVEC. In words: REL-A HUVEC nuclear translocation assay (TNF-α stimulated, high content imaging). In kind it is cell-based. To be noted: Homo sapiens, 2 ng/mL TNF-α. The method, then: (§1) (2) A second set of cell assays used primary human umbilical vein cells (HUVEC) sourced from Lonza to define the selectivity of NIK inhibitors toward inhibition of classical vs. non-classical NF-kB signaling using high content cellular imaging. For the p52 (non-classical NF-kB signaling) nuclear translocation assay, HUVEC were treated with different concentrations of compounds (0.2% DMSO final) in EBM-2 medium (LONZA) containing 2% fetal bovine serum and then stimulated with 300 ng/mL of an anti-lymphotoxin beta receptor antibody (R&D Systems) for 4.5 hours. In the REL-A nuclear translocation assay, HUVEC were incubated with compounds (0.2% DMSO final) for 4 hours 50 minutes in EBM-2 medium containing 2% fetal bovine serum before stimulating them with 2 ng/mL tumor necrosis factor (TNF)-α (R&D Systems) for 10 minutes. Cells were fixed with 4% paraformaldehyde, permeabilized by adding 0.1% Triton X-100 in phosphate buffered saline, and then were incubated with either 2 μg/mL anti-p52 antibody (Millipore) or 400 ng/mL anti-REL-A (p65) antibody (Santa Cruz Biotechnology). Finally, the cells were incubated with an Alexa488-labeled secondary antibody (Invitrogen) and DRAQ5 DNA stain (Biostatus). Imaging was carried out using an Opera reader (Perkin Elmer) and data were analyzed with the aid of Acapella software (Perkin Elmer). The p52 or REL-A translocation into the nucleus was quantified by the ratio of the nuclear to cytoplasmic signal intensity.

In data set [3] the test system is p52 (non-classical NF-kB signaling) nuclear translocation in HUVEC. In words: p52 HUVEC nuclear translocation assay (anti-lymphotoxin beta receptor antibody stimulated). It counts as cell-based. To be noted: Homo sapiens, 300 ng/mL anti-lymphotoxin beta receptor antibody. Here is the method:
as §1

The nature of data set [4]: Liver microsome stability. In kind it is in vitro ADME. To be noted: for HLM CL (human liver microsome clearance): human liver microsomes; for stability in human liver microsomes versus the corresponding pyrrolidinone comparator compound: qualitative comparison. The method, then:
Metabolic stability assays in liver microsomes are conducted with pooled female CD-1 mouse, male Sprague-Dawley rat, male beagle dog, male cynomolgus monkey, and mixed male and female human liver microsomal incubations. The general assay conditions are as follows. Incubation mixtures consisted of liver microsomes (0.5 mg of microsomal protein/ml) and the test compound (1.0 μM) with or without NADPH (1.0 mM) in the potassium phosphate buffer (100 mM; pH 7.4) with a final incubation volume of 0.25 ml. Reactions are initiated by the addition of NADPH or buffer and shaken in a water bath open to the air at 37° C. At times 0, 20, 40, and 60 min, aliquots (50 μl) are removed and added to termination mixtures (100 μl) containing acetonitrile and an internal standard. The samples are then centrifuged for 10 min at 2000 g. The supernatant (90 μl) is removed, combined with 180 μl of water, and analyzed by LC-MS/MS.
Metabolic stability of the test compounds were evaluated in human liver microsomes following known protocols described in Halladay, et al. Drug Metabol. Lett. 2007, 1:67-72.
A general note: Microsomes from liver hold many membrane-bound enzymes, among them those of drug oxidation.

Data set [5] can be described thus: Hepatocyte stability. It counts as in vitro ADME. To be noted: human hepatocytes; for stability in the human hepatocyte assay versus the corresponding pyrrolidinone comparator compound: qualitative comparison. Here is the method:
General. Metabolic stability assays in hepatocytes are conducted using cryopreserved pooled female CD-1 mouse, male Sprague-Dawley rat, male beagle dog, male cynomolgus monkey, and mixed male and female human hepatocytes (CellzDirect). Vials of hepatocytes are thawed rapidly in a water bath set at 37° C. and then are diluted with Dulbecco's modified Eagle's medium (DMEM), pH 7.4. Cells are isolated by centrifugation, pooled, and resuspended in DMEM at 1.0 million viable cells/ml. Membrane integrity of the cells is assessed by trypan blue exclusion. The test compound is dissolved in dimethyl sulfoxide at a final concentration of 10 mM. This test compound stock is diluted further to 2 μM in DMEM (125 μl) before the addition of an equal volume of the 10^6 cells/ml cell suspension. The test compound (final incubation concentration of 1.0 μM with 0.1% dimethyl sulfoxide) and cells (final concentration of 0.5×10^6 cells/ml) are incubated at 37° C. in a 95% air/5% CO2 atmosphere for 3 h. Aliquots (50 μl) are removed at 0, 1, 2, and 3 hours and added to termination mixtures (100 μl) containing acetonitrile and an internal standard. The samples are then centrifuged for 10 min at 2000 g. The supernatant (90 μl) is removed, combined with 180 μl of water, and analyzed by LC-MS/MS.
Metabolic stability of the test compounds were evaluated also in human hepatocytes, following protocols described in Hallifax, et al. Drug Metabol. Disposition, 2005, 33:1852-1858.

Data set [6] deals with REL-A (p65) nuclear translocation in HeLa cells. In words: REL-A HeLa nuclear translocation assay (TNF-α stimulated, high content imaging). It counts as cell-based. To be noted: Homo sapiens, 10 ng/mL TNF-α. The method, then: (§2) (3) A third set of cell assays are used to define the selectivity of NIK inhibitors toward inhibition of classical vs. non-classical NF-kB signaling and rely on quantification of the nuclear translocation of p52 (NF-kB2) and REL-A (p65) using high content cellular imaging. For the p52 (non-classical NF-kB signaling) nuclear translocation assay, HeLa cells are treated with different concentrations of compounds (0.2% DMSO final) in medium containing 10% fetal bovine serum and then stimulated with 100 ng/mL of an anti-lymphotoxin beta receptor antibody (R&D Systems) for 5 hours. In the REL-A nuclear translocation assay, HeLa cells are incubated with compounds (0.2% DMSO final) for 4.5 hours in medium containing 10% fetal bovine serum before stimulating them with 10 ng/mL tumor necrosis factor (TNF)-α (R&D Systems) for 30 minutes. Cells are fixed with 4% paraformaldehyde, permeabilized by adding 0.1% Triton X-100 in phosphate buffered saline, and then are incubated with either 2 μg/mL anti-p52 antibody (Millipore) or 400 ng/mL anti-REL-A (p65) antibody (Santa Cruz Biotechnology). Finally, the cells are incubated with an Alexa488-labeled secondary antibody (Invitrogen) and DRAQ5 DNA stain (Biostatus). Imaging is carried out using an Opera reader (Perkin Elmer) and data are analyzed with the aid of Acapella software (Perkin Elmer). The p52 or REL-A translocation into the nucleus is quantified by the ratio of the nuclear to cytoplasmic signal intensity. […] The test compounds have the corresponding inhibitory values (IC50) for NIK REL-A (p65) and p52 Translocation Assays as set forth in Table B2.

Data set [7] deals with p52 (NF-kB2) nuclear translocation in HeLa cells. In words: p52 HeLa nuclear translocation assay (anti-lymphotoxin beta receptor antibody stimulated). To be noted: Homo sapiens, 100 ng/mL anti-lymphotoxin beta receptor antibody. It counts as cell-based. Here is the method:
as §2

Sequence of nuclear factor-kappa B (NF-kB)-inducing kinase (NIK) (Q99558 whole entry): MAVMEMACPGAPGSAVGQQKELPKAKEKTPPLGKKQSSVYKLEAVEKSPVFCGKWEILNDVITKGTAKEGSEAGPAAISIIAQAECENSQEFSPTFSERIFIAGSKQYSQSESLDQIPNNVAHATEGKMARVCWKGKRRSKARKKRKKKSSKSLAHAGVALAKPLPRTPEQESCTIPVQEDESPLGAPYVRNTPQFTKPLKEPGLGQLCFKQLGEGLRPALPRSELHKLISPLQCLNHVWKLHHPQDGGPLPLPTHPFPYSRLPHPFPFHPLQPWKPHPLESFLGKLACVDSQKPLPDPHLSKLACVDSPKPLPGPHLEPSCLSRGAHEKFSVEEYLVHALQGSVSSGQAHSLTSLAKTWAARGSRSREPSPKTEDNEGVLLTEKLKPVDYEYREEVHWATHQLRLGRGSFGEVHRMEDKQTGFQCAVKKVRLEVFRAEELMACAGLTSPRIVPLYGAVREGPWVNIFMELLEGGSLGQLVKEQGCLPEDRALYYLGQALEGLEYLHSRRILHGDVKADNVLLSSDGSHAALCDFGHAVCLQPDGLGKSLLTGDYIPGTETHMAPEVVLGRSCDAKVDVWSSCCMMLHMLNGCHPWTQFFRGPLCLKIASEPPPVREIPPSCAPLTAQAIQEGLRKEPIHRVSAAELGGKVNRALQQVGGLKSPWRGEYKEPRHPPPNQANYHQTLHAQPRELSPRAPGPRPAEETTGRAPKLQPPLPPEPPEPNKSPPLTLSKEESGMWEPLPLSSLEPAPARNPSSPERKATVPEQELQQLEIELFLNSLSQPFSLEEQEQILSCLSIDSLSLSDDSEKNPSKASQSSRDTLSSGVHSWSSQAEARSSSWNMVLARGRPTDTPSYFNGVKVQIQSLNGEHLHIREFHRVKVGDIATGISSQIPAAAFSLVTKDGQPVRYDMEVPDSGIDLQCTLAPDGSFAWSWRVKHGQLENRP

With `CN1C(=O)[C@](O)(C#Cc2cccc(-n3nc(C(N)=O)c4cccnc43)c2)[C@H]2C[C@H]21` [Compound 1, 1-(3-(((1R,4R,5S)-4-hydroxy-2-methyl-3-oxo-2-azabicyclo[3.1.0]hexan-4-yl)ethynyl)phenyl)-1H-pyrazolo[3,4-b]pyridine-3-carboxamide], in data set [1], the Ki was determined as 0.88 nM and the “NIK enzyme inhibition, potency in words relative to the other stereoisomers” value is on record as “most potent NIK enzyme inhibitor among the 4 stereoisomers”. In data set [2], the IC50 is over 5000 nM. The IC50 in data set [3] turned out to be 55 nM. Moreover, in data set [4], the “HLM CL (human liver microsome clearance)” value is reported as 5.8 mL/min/kg and the “stability in human liver microsomes versus the corresponding pyrrolidinone comparator compound” value was “better stability”. In data set [5], the “Hep CL (human hepatocyte clearance)” value came out at 0.8 mL/min/kg and the “stability in the human hepatocyte assay versus the corresponding pyrrolidinone comparator compound” value is reported as “better stability”.

Take `CN1C(=O)[C@](O)(C#Cc2cccc(-n3nc(C(N)=O)c4cccnc43)c2)[C@@H]2C[C@@H]21` [Compound 2, 1-(3-(((1S,4R,5R)-4-hydroxy-2-methyl-3-oxo-2-azabicyclo[3.1.0]hexan-4-yl)ethynyl)phenyl)-1H-pyrazolo[3,4-b]pyridine-3-carboxamide]: in data set [1], the Ki is 4.3 nM and the “NIK enzyme inhibition, potency in words relative to the other stereoisomers” value is listed as “second most potent NIK enzyme inhibitor among the 4 stereoisomers”. The compound also came in with an IC50 in data set [2] of over 5000 nM. The same compound registered an IC50 in data set [3] of 280 nM. Besides, the “HLM CL (human liver microsome clearance)” value in data set [4] amounted to 7.7 mL/min/kg. The “Hep CL (human hepatocyte clearance)” value in data set [5] is 13 mL/min/kg.

On to `CN1C(=O)[C@](O)(C#Cc2cccc(-c3nc(C(N)=O)n4ccccc34)c2)[C@H]2C[C@H]21` [Compound 3], for which, in data set [2], the IC50 is over 5000 nM. The compound also had an IC50 in data set [3] of 25 nM. In data set [4], the “HLM CL (human liver microsome clearance)” value was 11 mL/min/kg and the “stability in human liver microsomes versus the corresponding pyrrolidinone comparator compound” value is given as “better stability”. Also, in data set [5], the “Hep CL (human hepatocyte clearance)” value is 9.0 mL/min/kg and the “stability in the human hepatocyte assay versus the corresponding pyrrolidinone comparator compound” value is listed as “better stability”.

`CN1CC[C@@](O)(C#Cc2cccc(-c3nc(C(N)=O)n4ccccc34)c2)C1=O` [Compound C-3]: the IC50 in data set [2] was over 5000 nM; in data set [6] it was over 20000 nM; in data set [7], 29.8 nM.

With `COc1ccn2c(C(N)=O)nc(-c3cccc(C#C[C@]4(O)CCN(C)C4=O)c3)c2c1` [Compound C-4, reference compound], the IC50 in data set [2] was over 5000 nM; in data set [6], over 1000 nM; in data set [7], 6.6 nM. The “HLM CL (human liver microsome clearance)” value in data set [4] stood at 15 mL/min/kg. Moreover, the “Hep CL (human hepatocyte clearance)” value in data set [5] came to 9.9 mL/min/kg.

`CN1CC[C@@](O)(C#Cc2cccc(-c3nc(C(N)=O)c(N)s3)c2)C1=O` [Compound C-6, reference compound]: the Ki in data set [1] amounted to 0.13 nM. For the same compound, the results for the IC50 in data set [6] and in data set [7] were over 5000 nM and 79.1 nM, respectively. The “HLM CL (human liver microsome clearance)” value in data set [4] was found to be 5.1 mL/min/kg. The “Hep CL (human hepatocyte clearance)” value in data set [5] was determined as 1.1 mL/min/kg.

For `CN1C(=O)[C@](O)(C#Cc2cccc(-c3nc(C(N)=O)c4ccccn34)c2)[C@H]2C[C@H]21` [Compound 5, 3-(3-(((1R,4R,5S)-4-hydroxy-2-methyl-3-oxo-2-azabicyclo[3.1.0]hexan-4-yl)ethynyl)phenyl)imidazo[1,5-a]pyridine-1-carboxamide], in data set [1], the Ki stood at 4.7 nM and the “NIK enzyme inhibition, potency in words relative to the other stereoisomers” value is “most potent NIK enzyme inhibitor among the 4 stereoisomers”. In data set [2], this compound gave an IC50 of over 5000 nM. The IC50 in data set [3] came out at 3000 nM. In addition, in data set [4], the “HLM CL (human liver microsome clearance)” value came to 3.5 mL/min/kg and the “stability in human liver microsomes versus the corresponding pyrrolidinone comparator compound” value is recorded as “better stability”. For the same compound, in data set [5], the “Hep CL (human hepatocyte clearance)” value is listed as 1.6 mL/min/kg and the “stability in the human hepatocyte assay versus the corresponding pyrrolidinone comparator compound” value was “better stability”.

As usually defined, the Ki is the dissociation constant of the complex between target and ligand, obtained from inhibition or displacement. As a reminder, the IC50 is the concentration that inhibits the measured activity by half. Read a high IC50 as weaker potency in that assay.
